The source made the active and inactive calls. No cut-off for these calls is given here.
Experiments:
NCI/ADR-RES = assay: Antiproliferation activity against human MCF7/ADR cells measured after 72 hrs incubation by MTT assay; format: functional, cell-based
Tubulin (Homo sapiens) [1] = target: T1, Tubulin (Homo sapiens) (UniProt P68371+Q9H4B7+P0DPH7+P68366+Q13509+Q71U36+P04350+Q3ZCM7+P07437+P68363+Q9BQE3+Q6PEY2+Q13885+Q9BVA1+Q9BUF5); assay: In vitro inhibition of microtubule (unknown origin) assembly at 10 uM; format: protein-complex assay
Tubulin (Homo sapiens) [2] = target: T1, Tubulin (Homo sapiens); assay: Inhibition of microtubule assembly in human MCF7 cells assessed as disrupted microtubule network at 50 uM measured after 24 hrs incubation by anti-alpha-tubulin antibody (green) and Hoechst 33342 (blue) stained nuclei were obtained under microscopy; format: cell-based
[3] = target: T2, DNA topoisomerase 1 (Homo sapiens) (UniProt P11387); assay: Inhibition of human DNA topoisomerase 1 assessed as relaxation of supercoiled pBR322 DNA as substrate incubated for 30 mins by gel staining based electrophoresis analysis; conditions: dose 20-200 µM
T2 sequence (whole entry): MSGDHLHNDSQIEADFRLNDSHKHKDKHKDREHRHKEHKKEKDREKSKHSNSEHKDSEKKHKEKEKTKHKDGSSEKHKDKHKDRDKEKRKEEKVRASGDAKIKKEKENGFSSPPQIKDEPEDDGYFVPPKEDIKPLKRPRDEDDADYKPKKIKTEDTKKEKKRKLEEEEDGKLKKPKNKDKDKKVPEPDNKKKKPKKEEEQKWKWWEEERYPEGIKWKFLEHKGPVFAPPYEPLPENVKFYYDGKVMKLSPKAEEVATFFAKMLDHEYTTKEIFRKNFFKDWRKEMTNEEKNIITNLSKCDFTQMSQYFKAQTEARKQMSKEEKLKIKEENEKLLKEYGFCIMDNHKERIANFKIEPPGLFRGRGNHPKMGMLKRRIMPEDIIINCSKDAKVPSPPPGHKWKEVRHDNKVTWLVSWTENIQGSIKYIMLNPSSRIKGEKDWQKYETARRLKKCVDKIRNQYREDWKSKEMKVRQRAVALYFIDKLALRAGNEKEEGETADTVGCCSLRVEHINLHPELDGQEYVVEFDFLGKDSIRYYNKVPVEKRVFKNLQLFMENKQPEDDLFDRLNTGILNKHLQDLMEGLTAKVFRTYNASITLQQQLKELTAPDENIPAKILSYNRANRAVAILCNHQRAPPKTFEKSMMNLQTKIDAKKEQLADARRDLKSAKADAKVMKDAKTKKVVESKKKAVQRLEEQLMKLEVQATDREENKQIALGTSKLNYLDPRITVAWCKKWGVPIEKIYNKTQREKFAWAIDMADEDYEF

MCF7 [4] = assay: Induction of cell cycle arrest in human MCF7 cells assessed as accumulation of cells at G2/M phase at 4 nM measured after 24 hrs by flow cytometry (reference value: 22.84%); format: functional
MCF7 [5] = assay: Induction of cell cycle arrest in human MCF7 cells assessed as accumulation of cells at G2/M phase at 100 nM measured after 24 hrs by flow cytometry (reference value: 22.84%); format: functional
MCF7 [6] = assay: Induction of cell cycle arrest in human MCF7 cells assessed as accumulation of cells at G0/G1 phase at 4 nM measured after 24 hrs by flow cytometry (reference value: 61.73%); format: functional
MCF7 [7] = assay: Induction of cell cycle arrest in human MCF7 cells assessed as accumulation of cells at G0/G1 phase at 500 nM measured after 24 hrs by flow cytometry (reference value: 61.73%); format: functional
MCF7 [8] = assay: Induction of cell cycle arrest in human MCF7 cells assessed as increase in cyclin B1 protein expression at […] by Western blot analysis; format: functional, cell-based; conditions: dose lower 12.5 µM
MCF7 [9] = assay: Induction of apoptosis in human MCF7 cells assessed as early apoptotic cells at 6.25 nM measured after 48 hrs by AnnexinV/PI double staining assays (reference value: 5.32%); format: functional
MCF7 [10] = assay: Induction of apoptosis in human MCF7 cells assessed as viable cells at 12.5 nM measured after 48 hrs by AnnexinV/PI double staining assays (reference value: 91.20%); format: functional; conditions: read-out: Activity
MCF7 [11] = assay: Induction of apoptosis in human MCF7 cells assessed as late apoptotic cells at 12.5 nM measured after 48 hrs by AnnexinV/PI double staining assays (reference value: 2.60%); format: functional
MCF7 [12] = assay: Induction of apoptosis in human MCF7 cells assessed as late apoptotic cells at 25 nM measured after 48 hrs by AnnexinV/PI double staining assays (reference value: 2.60%); format: functional
MCF7 [13] = assay: Induction of apoptosis in human MCF7 cells assessed as necrotic cells at 25 nM measured after 48 hrs by AnnexinV/PI double staining assays (reference value: 0.89%); format: functional
MCF7 [14] = assay: Induction of apoptosis in human MCF7 cells assessed as karyopyknosis at 5 nM measured after 24 hrs by fluorescent microscopy; format: functional, cell-based
HMEC-1 [15] = assay: Anti-proliferative activity against human HMEC-1 cells measured after 48 hrs; format: functional, cell-based; conditions: HMEC-1, 48 h
HMEC-1 [16] = assay: Angiogenic activity against human HMEC-1 cells assessed as decrease in vascular area measured after 48 hrs by Endothelial tube formation assay; format: functional, cell-based; conditions: dose 1-100 nM

What does the source list for COc1cc(NS(=O)(=O)c2ccc3c(c2)c2ccc(N)cc2n3C)c(OC)cc1Cl?
IC50 (NCI/ADR-RES): 1.86 nM; inhibition (Tubulin (Homo sapiens) [1]): Active; inhibition (Tubulin (Homo sapiens) [2]): Active; inhibition [3]: Dose-Dependent Effect; Activity (MCF7 [4]): 23.3%; Activity (MCF7 [5]): 41.21%; Activity (MCF7 [6]): 47.57%; Activity (MCF7 [7]): 5.54%; Activity (MCF7 [8]): Dose-Dependent Effect; Activity (MCF7 [9]): 16.87%; viability at 0.0125 µM (MCF7 [10]): 64.2%; Activity (MCF7 [11]): 8.66%; Activity (MCF7 [12]): 14.03%; Activity (MCF7 [13]): 0.51%; Activity (MCF7 [14]): Active; IC50 (HMEC-1 [15]): 6.42 nM; Activity (HMEC-1 [16]): Dose-Dependent Effect

Reference: ChEMBL document CHEMBL5523719, “Structure-activity relationship study of new carbazole sulfonamide derivatives as anticancer agents with dual-target mechanism” (Eur J Med Chem, 2024)
